Where no end group is shown, it is not given here.
Molecular target: T1, ASIC3 E421Q (Homo sapiens, UniProt Q9UHC3, E421Q)
T1 construct: human ASIC3 (NM_004769.4); P2A-mCherry reporter (C, cleaved yes); expressed in transfected cells; host or cells: CHO cells (85050302, Sigma), transient transfection
T1 sequence (Q9UHC3 1-531 E421Q): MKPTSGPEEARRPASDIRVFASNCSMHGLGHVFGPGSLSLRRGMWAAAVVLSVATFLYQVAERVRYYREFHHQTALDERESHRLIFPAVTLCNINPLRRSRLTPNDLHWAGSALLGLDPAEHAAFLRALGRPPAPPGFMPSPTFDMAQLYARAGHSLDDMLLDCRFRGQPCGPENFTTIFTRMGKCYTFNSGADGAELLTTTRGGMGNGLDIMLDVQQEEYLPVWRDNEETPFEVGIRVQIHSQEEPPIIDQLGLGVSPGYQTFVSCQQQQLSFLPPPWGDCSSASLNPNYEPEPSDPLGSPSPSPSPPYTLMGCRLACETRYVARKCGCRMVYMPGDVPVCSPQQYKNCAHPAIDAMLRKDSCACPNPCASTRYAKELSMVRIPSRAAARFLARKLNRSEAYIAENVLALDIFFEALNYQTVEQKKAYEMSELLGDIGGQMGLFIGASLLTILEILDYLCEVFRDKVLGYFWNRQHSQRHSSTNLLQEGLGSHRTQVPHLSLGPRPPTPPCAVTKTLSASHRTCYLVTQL
Assay: MPC peptide activity on ASIC3 E421Q mutant
Format: cell-based
Details: Emax constrained, read-out: EC50 (95% CI)

WRPRF-NH2 [WRPRFa]
EC50: ≥ 22.5 µM

Source: PMC12738692, “Identification, characterization, and structure-activity relationship of the ASIC3-selective peptide WRPRFa” (Communications Chemistry, 2025)
